One test deals with H820 cells. Briefly: cells. The settings on record: Homo sapiens, NCI-H820, read-out: cell viability (%).
The next test deals with p27^Kip1 (CDKN1B). Briefly: Real-time PCR of p27^Kip1 expression in H1975. The settings on record: H1975, 24 h, flunarizine 2.5, 5, or 10 μM or SAHA 0.25, 0.5, or 1 μM; all concentrations tested. The test is classed as cell-based, human. Here is the method:
(§1) Reverse transcription was performed using 1 μg of total RNA sample with the PrimeScript First Strand cDNA Synthesis Kit (TaKaRa Biomedical Technology) at 37 °C for 10 min. The cDNA was then amplified by real-time PCR to determine the relative expression of p27^Kip1 and BIM using the KAPA SYBR FAST qPCR kit (KapaBiosystems, Wilmington, Massachusetts) with a LightCycler 480 Instrument I instrument (Roche Applied Science, Indianapolis, Indiana). The house-keeping gene GAPDH was also measured for normalization. Specific primer sequences used in the PCR reactions are p27^Kip1, forward 5′-[…]-3′ and reverse 5′-[…]-3′; Bim, forward 5′-[…]-3′ and reverse 5′-[…]-3′; and GAPDH, forward 5′-[…]-3′ and reverse 5′-[…]-3′. The PCR temperature program was set at 95 °C for 5 min, followed by 35 cycles of 95 °C for 10 s and 60 °C for 10 s. The fluorescent signal was detected at the end of the PCR elongation step of every cycle to keep track of the amount of amplified DNA. ΔCt was calculated by subtracting the Ct of GAPDH from the Ct of Bim or p27^Kip1. Fold change in gene expression was analyzed by the 2^–ΔΔCt method.
In general terms: In qPCR the cycle at which signal appears reflects the starting amount.

The target of another test is T1, recombinant human HDAC2 (Homo sapiens, UniProt Q92769).
T1 construct: purchased Creative Biomart
Briefly: Biochemical HDAC activity assay, recombinant HDAC2. The settings on record: recombinant HDAC2, mean ± SD, three independent experiments.

For another test, the target named is T2, recombinant human HDAC8 (Homo sapiens, UniProt Q9BY41).
T2 sequence (Q9BY41 1-377): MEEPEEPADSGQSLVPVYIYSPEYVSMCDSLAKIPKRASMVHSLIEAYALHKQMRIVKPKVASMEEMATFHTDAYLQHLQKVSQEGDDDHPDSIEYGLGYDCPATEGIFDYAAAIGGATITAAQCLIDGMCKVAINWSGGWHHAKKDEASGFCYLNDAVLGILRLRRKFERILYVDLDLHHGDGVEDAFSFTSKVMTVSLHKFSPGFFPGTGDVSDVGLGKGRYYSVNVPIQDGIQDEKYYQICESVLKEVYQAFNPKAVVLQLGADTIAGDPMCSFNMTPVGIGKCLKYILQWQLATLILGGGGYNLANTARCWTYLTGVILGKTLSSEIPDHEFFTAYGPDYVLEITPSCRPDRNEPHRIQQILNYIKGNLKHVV
Briefly: biochemical.

The test system of another test is vimentin. Briefly: Western blot of vimentin in H1975 cells. The test is classed as cell-based, human. The settings on record: concentration-dependent. In general terms: In western blotting, separated proteins are transferred to a membrane and probed.
A further test relates to Bim (BCL2L11). Briefly: Real-time PCR of Bim expression in H1975. The test is classed as cell-based, human. The settings on record: H1975, 24 h, flunarizine 2.5, 5, or 10 μM or SAHA 0.25, 0.5, or 1 μM; all concentrations tested. On the procedure:
as §1

The next test concerns E-cadherin. Briefly: Western blot of E-cadherin in H1975 cells. The test is classed as cell-based, human. The settings on record: concentration-dependent.
The subject of a further test is H1975 cells. Briefly: cells. The settings on record: Homo sapiens, NCI-H1975, read-out: cell viability (%).
A further test addresses recombinant human HDAC3 (Homo sapiens, UniProt O15379). Briefly: biochemical.

recombinant human HDAC3, sequence (O15379 whole entry): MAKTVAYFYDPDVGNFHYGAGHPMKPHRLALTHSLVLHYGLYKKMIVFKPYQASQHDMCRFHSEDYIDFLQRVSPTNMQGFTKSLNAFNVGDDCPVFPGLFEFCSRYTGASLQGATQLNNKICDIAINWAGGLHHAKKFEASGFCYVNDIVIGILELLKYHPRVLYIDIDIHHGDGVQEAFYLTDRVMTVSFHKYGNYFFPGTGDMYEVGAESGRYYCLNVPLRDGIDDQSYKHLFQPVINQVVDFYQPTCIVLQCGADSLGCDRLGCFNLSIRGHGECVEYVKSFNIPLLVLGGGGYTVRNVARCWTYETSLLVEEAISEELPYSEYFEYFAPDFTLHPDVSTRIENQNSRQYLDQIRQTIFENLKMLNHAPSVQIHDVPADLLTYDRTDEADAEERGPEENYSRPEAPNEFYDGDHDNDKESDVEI
recombinant human HDAC3, sequence (Q9Y618 395-489 partner limits assumed): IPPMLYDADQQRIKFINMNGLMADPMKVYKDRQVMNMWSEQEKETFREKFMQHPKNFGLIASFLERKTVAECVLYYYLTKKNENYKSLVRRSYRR
T1 sequence (Q92769 whole entry): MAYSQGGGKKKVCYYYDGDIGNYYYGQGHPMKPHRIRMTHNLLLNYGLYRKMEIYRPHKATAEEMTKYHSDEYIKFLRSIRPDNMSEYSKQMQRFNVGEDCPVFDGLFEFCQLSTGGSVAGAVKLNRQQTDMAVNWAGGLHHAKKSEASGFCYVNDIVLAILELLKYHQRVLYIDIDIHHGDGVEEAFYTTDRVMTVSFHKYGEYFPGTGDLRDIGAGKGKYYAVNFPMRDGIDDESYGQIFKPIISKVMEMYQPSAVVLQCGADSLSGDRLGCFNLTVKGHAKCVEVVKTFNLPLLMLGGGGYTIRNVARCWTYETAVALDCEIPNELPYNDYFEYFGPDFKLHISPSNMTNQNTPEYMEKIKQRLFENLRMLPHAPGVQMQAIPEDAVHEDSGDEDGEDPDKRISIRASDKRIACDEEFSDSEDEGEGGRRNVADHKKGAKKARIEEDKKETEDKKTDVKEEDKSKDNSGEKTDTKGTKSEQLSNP

Turning to `Fc1ccc(C(c2ccc(F)cc2)N2CCN(C/C=C/c3ccccc3)CC2)cc1` [flunarizine], the figures for the viability at 2.5 µM in the test on H820 cells and in the test on H1975 cells were 103 ± 5% and 95 ± 8%, respectively. Also, the viability at 5 µM in the test with H820 cells was 94 ± 7%; with H1975 cells it was 94 ± 6%. Also, the “p27^Kip1 expression” value with p27^Kip1 (CDKN1B) was “significantly increase”. Further, the IC50 on recombinant human HDAC2 turned out to be 0.36 ± 0.026 µM; at recombinant human HDAC8 it was 5.5 ± 0.45 µM; at recombinant human HDAC3, 0.305 ± 0.031 µM. In addition, the vimentin expression result in the test with vimentin was “downregulate”. In the test on Bim (BCL2L11), the Bim expression entry is recorded as “significantly increase”. Further, the E-cadherin expression result with E-cadherin is “upregulate”. In the test on H1975 cells, the viability at 10 µM was 86 ± 7%.

Usually viability stands for a read-out of living cells in per cent, often relative to untreated cells. Usually IC50 stands for the point on the concentration scale where inhibition reaches its midpoint.

Source of the values: article PMC10580381 (ACS Pharmacology & Translational Science, 2023).
